Patent US20210393633A1, “INHIBITORS OF HUMAN IMMUNODEFICIENCY VIRUS REPLICATION” (ViiV HEALTHCARE UK (NO.5) LIMITED, priority 2018, published 2021)

Key:
[1] = Compound cytotoxicity, XTT-based colorimetric assay; assay type: cell-based; conditions: human; uninfected MT2 cells, day 4, XTT
Procedure: Compound cytotoxicity and the corresponding CC50 values were determined using the same protocol as described in the antiviral assay except that uninfected cells were used. Cytotoxicity was assessed on day 4 in uninfected MT2 cells by using a XTT (2,3-bis[2-Methoxy-4-nitro-5-sulfophenyl]-2H-tetrazolium-5-carboxyanilide inner salt)-based colorimetric assay (Sigma-Aldrich, St Louis, Mo).

[2] = system: recombinant NL4-3 virus (nef section replaced with Renilla luciferase gene) in MT-2 cells; assay: HIV cell culture assay (antiviral activity, luciferase readout in infected MT-2 cells); assay type: cell-based; conditions: NL43
Procedure: HIV cell culture assay—MT-2 cells, 293T cells and the proviral DNA clone of NL4-3 virus were obtained from the NIH AIDS Research and Reference Reagent Program. MT-2 cells were propagated in RPMI 1640 media supplemented with 10% heat inactivated fetal bovine serum (FBS), […]. The 293T cells were propagated in DMEM media supplemented with 10% heat inactivated FBS, […]. A recombinant NL4-3 proviral clone, in which a section of the nef gene was replaced with the Renilla luciferase gene, was used to make the reference virus used in these studies. The recombinant virus was prepared through transfection of the recombinant NL4-3 proviral clone into 293T cells using Transit-293 Transfection Reagent from Minis Bio LLC (Madison, Wis.). Supernatent was harvested after 2-3 days and the amount of virus present was titered in MT-2 cells using luciferase enzyme activity as a marker by measuring luciferase enzyme activity. Luciferase was quantitated using the EnduRen Live Cell Substrate from Promega (Madison, Wis.). Antiviral activities of compounds toward the recombinant virus were quantified by measuring luciferase activity in MT-2 cells infected for 4-5 days with the recombinant virus in the presence of serial dilutions of the compound.
The 50% effective concentration (EC5o) was calculated by using the exponential form of the median effect equation where (Fa)=1/[1+(ED50/drug conc.)m] (Johnson Va., Byington R T. Infectivity Assay. In Techniques in HIV Research. ed. Aldovini A, Walker B D. 71-76. New York: Stockton Press.1990). The 50% inhibitory concentration (EC50) was calculated by using the exponential form of the median effect equation where percent inhibition=1/[1 +(EC50/drug concentration)m], where m is a parameter that reflects the slope of the concentration-response curve.

Row | Structure (SMILES) | CC50 at 4 day [1] | EC50 [2]
1 | CS(=O)(=O)Nc1nn(CC(F)F)c2c(-n3c([C@H](Cc4cc(F)cc(F)c4)NC(=O)Cn4nc(C(F)F)c5c4C(F)(F)[C@@H]4C[C@H]54)nc4cc(C5=CCOCC5)ccc4c3=O)ccc(Cl)c12 (atropisomer, axis not shown; (P)) [Example 15, N—((S)-1-((3P)-3-(4-chloro-1-(2,2-difluoroethyl)-3-(methylsulfonamido)-1H-indazol-7-yl)-7-(3,6-dihydro-2H-pyran-4-yl)-4-oxo-3,4-dihydroquinazolin-2-yl)-2-(3,5-difluorophenyl)ethyl)-2-((3bS,4aR)-3-(difluoromethyl)-5,5-difluoro-3b,4,4a,5-tetrahydro-1H-cyclopropal3,41cyclopenta[1,2-c]pyrazol-1-yl)acetamide] | > 500 nM | 0.094 nM
2 | CS(=O)(=O)Nc1nn(CC(F)F)c2c(-n3c([C@H](Cc4cc(F)cc(F)c4)NC(=O)Cn4nc(C(F)F)c5c4C(F)(F)[C@@H]4C[C@H]54)nc4cc(C5CCOCC5)ccc4c3=O)ccc(Cl)c12 (atropisomer, axis not shown; (P)) [Example 17, N—((S)-1-((3P)-3-(4-chloro-1-(2,2-difluoroethyl)-3-(methylsulfonamido)-1H-indazol-7-yl)-4-oxo-7-(tetrahydro-2H-pyran-4-yl)-3,4-dihydroquinazolin-2-yl)-2-(3,5-difluorophenyl)ethyl)-2-((3bS,4aR)-3-(difluoromethyl)-5,5-difluoro-3b,4,4a,5-tetrahydro-1H-cyclopropal3,41cyclopenta[1,2-c]pyrazol-1-yl)acetamide] | > 500 nM | 0.06 nM
3 | O=C(Cn1nc(C(F)F)c2c1C(F)(F)[C@@H]1C[C@H]21)N[C@@H](Cc1cc(F)cc(F)c1)c1nc2cc(C3CCOCC3)ccc2c(=O)n1-c1ccc(Cl)c2c(NS(=O)(=O)C3CC3)nn(CC(F)F)c12 (atropisomer, axis not shown; (P)) [Example 18] | > 500 nM | 0.084 nM
4 | C[C@@H]1CC(c2ccc3c(=O)n(-c4ccc(Cl)c5c(NS(C)(=O)=O)nn(C)c45)c([C@H](Cc4cc(F)cc(F)c4)NC(=O)Cn4nc(C(F)F)c5c4C(F)(F)[C@@H]4C[C@H]54)nc3c2)=C[C@H](C)O1 (atropisomer, axis not shown; (P)) [Example 19, N—((S)-1-((3P)-3-(4-chloro-1-methyl-3-(methylsulfonamido)-1H-indazol-7-yl)-7-((2R,6S)-2,6-dimethyl-3,6-dihydro-2H-pyran-4-yl)-4-oxo-3,4-dihydroquinazolin-2-yl)-2-(3,5-difluorophenyl)ethyl)-2-((3bS,4aR)-3-(difluoromethyl)-5,5-difluoro-3b,4,4a,5-tetrahydro-1H-cyclopropa[3,4]cyclopenta[1,2-c]pyrazol-1-yl)acetamide] | > 500 nM | 0.08 nM
5 | C[C@@H]1CC(c2ccc3c(=O)n(-c4ccc(Cl)c5c(NS(C)(=O)=O)nn(CC(F)F)c45)c([C@H](Cc4cc(F)cc(F)c4)NC(=O)Cn4nc(C(F)F)c5c4C(F)(F)[C@@H]4C[C@H]54)nc3c2)=C[C@H](C)O1 (atropisomer, axis not shown; (P)) [Example 20, N—((S)-1-((3P)-3-(4-chloro-1-(2,2-difluoroethyl)-3-(methylsulfonamido)-1H-indazol-7-yl)-7-((2R,6S)-2,6-dimethyl-3,6-dihydro-2H-pyran-4-yl)-4-oxo-3,4-dihydroquinazolin-2-yl)-2-(3,5-difluorophenyl)ethyl)-2-((3bS,4aR)-3-(difluoromethyl)-5,5-difluoro-3b,4,4a,5-tetrahydro-1H-cyclopropa[3,4]cyclopenta[1,2-c]pyrazol-1-yl)acetamide] | > 500 nM | 0.13 nM
6 | C[C@@H]1CC(c2ccc3c(=O)n(-c4ccc(Cl)c5c(NS(=O)(=O)C6CC6)nn(CC(F)F)c45)c([C@H](Cc4cc(F)cc(F)c4)NC(=O)Cn4nc(C(F)F)c5c4C(F)(F)[C@@H]4C[C@H]54)nc3c2)=C[C@H](C)O1 (atropisomer, axis not shown; (P)) [Example 21, N—((S)-1-((3P)-3-(4-chloro-3-(cyclopropanesulfonamido)-1-(2,2-difluoroethyl)-1H-indazol-7-yl)-7-((2R,6S)-2,6-dimethyl-3,6-dihydro-2H-pyran-4-yl)-4-oxo-3,4-dihydroquinazolin-2-yl)-2-(3,5-difluorophenyl)ethyl)-2-((3bS,4aR)-3-(difluoromethyl)-5,5-difluoro-3b,4,4a,5-tetrahydro-1H-cyclopropa[3,4]cyclopenta[1,2-c]pyrazol-1-yl)acetamide] | > 500 nM | 0.14 nM
7 | COC(C)(C)CCc1ccc2c(=O)n(-c3ccc(Cl)c4c(NS(C)(=O)=O)nn(C)c34)c([C@H](Cc3cc(F)cc(F)c3)NC(=O)Cn3nc(C(F)F)c4c3C(F)(F)[C@@H]3C[C@H]43)nc2c1 (atropisomer, axis not shown; (P)) [Example 24, N—((S)-1-((3P)-3-(4-chloro-1-methyl-3-(methylsulfonamido)-1H-indazol-7-yl)-7-(3-methoxy-3-methylbutyl)-4-oxo-3,4-dihydroquinazolin-2-yl)-2-(3,5-difluorophenyl)ethyl)-2-((3bS,4aR)-3-(difluoromethyl)-5,5-difluoro-3b,4,4a,5-tetrahydro-1H-cyclopropa[3,4]cyclopenta[1,2-c]pyrazol-1-yl)acetamide] | > 500 nM | 0.039 nM
8 | Cn1nc(NS(C)(=O)=O)c2c(Cl)ccc(-n3c([C@H](Cc4cc(F)cc(F)c4)NC(=O)Cn4nc(C(F)F)c5c4C(F)(F)[C@@H]4C[C@H]54)nc4cc(C(F)(F)C5CCC5)ccc4c3=O)c21 (atropisomer, axis not shown; (P)) [Example 25, N—((S)-1-((3P)-3-(4-chloro-1-methyl-3-(methylsulfonamido)-1H-indazol-7-yl)-7-(cyclobutyldifluoromethyl)-4-oxo-3,4-dihydroquinazolin-2-yl)-2-(3,5-difluorophenyl)ethyl)-2-((3bS,4aR)-3-(difluoromethyl)-5,5-difluoro-3b,4,4a,5-tetrahydro-1H-cyclopropa[3,4]cyclopenta[1,2-c]pyrazol-1-yl)acetamide] | > 500 nM | 0.75 nM
9 | Cn1nc(NS(C)(=O)=O)c2c(Cl)ccc(-n3c([C@H](Cc4cc(F)cc(F)c4)NC(=O)Cn4nc(C(F)F)c5c4C(F)(F)[C@@H]4C[C@H]54)nc4cc(C5(C(F)(F)F)CC5)ccc4c3=O)c21 (atropisomer, axis not shown; (P)) [Example 27] | > 500 nM | 0.13 nM
10 | Cn1nc(NS(C)(=O)=O)c2c(Cl)ccc(-n3c([C@H](Cc4cc(F)cc(F)c4)NC(=O)Cn4nc(C(F)F)c5c4C(F)(F)[C@@H]4C[C@H]54)nc4cc(CCC(=O)N5CCOCC5)ccc4c3=O)c21 [Example 1, N—((S)-1-((3P)-3-(4-chloro-1-methyl-3-(methylsulfonamido)-1H-indazol-7-yl)-7-(3-morpholino-3-oxopropyl)-4-oxo-3,4-dihydroquinazolin-2-yl)-2-(3,5-difluorophenyl)ethyl)-2-((3bS,4aR)-3-(difluoromethyl)-5,5-difluoro-3b,4,4a,5-tetrahydro-1H-cyclopropa[3,4]cyclopenta[1,2-c]pyrazol-1-yl)acetamide] | > 1000 nM | 0.096 nM
11 | CC1NCCNC1c1ccc2c(=O)n(-c3ccc(Cl)c4c(NS(C)(=O)=O)nn(C)c34)c([C@H](Cc3cc(F)cc(F)c3)NC(=O)Cn3nc(C(F)F)c4c3C(F)(F)[C@@H]3C[C@H]43)nc2c1 (stereo partly drawn) [Example 10, N-((1S)-1-((3P)-3-(4-chloro-1-methyl-3-(methylsulfonamido)-1H-indazol-7-yl)-7-(3-methylpiperazin-2-yl)-4-oxo-3,4-dihydroquinazolin-2-yl)-2-(3,5-difluorophenyl)ethyl)-2-((3bS,4aR)-3-(difluoromethyl)-5,5-difluoro-3b,4,4a,5-tetrahydro-1H-cyclopropa[3,4]cyclopenta[1,2-c]pyrazol-1-yl)acetamide] | > 1000 nM | 0.933 nM
12 | O=C(Cn1nc(C(F)F)c2c1C(F)(F)[C@@H]1C[C@H]21)N[C@@H](Cc1cc(F)cc(F)c1)c1nc2cc(C3=CCOCC3)ccc2c(=O)n1-c1ccc(Cl)c2c(NS(=O)(=O)C3CC3)nn(CC(F)F)c12 [Example 16, N—((S)-1-((3P)-3-(4-chloro-3-(cyclopropanesulfonamido)-1-(2,2-difluoroethyl)-1H-indazol-7-yl)-7-(3,6-dihydro-2H-pyran-4-yl)-4-oxo-3,4-dihydroquinazolin-2-yl)-2-(3,5-difluorophenyl)ethyl)-2-((3bS,4aR)-3-(difluoromethyl)-5,5-difluoro-3b,4,4a,5-tetrahydro-1H-cyclopropa[3,4]cyclopenta[1,2-c]pyrazol-1-yl)acetamide] | > 500 nM | 0.3 nM
